From patent US20240115556A1, “A JMJD6 TARGETING AGENT FOR TREATING PROSTATE CANCER” (Cancer Research Technology Limited, priority 2020, published 2024)

Columns and labels:
[1] = system: AR-V7 in LNCaP95 PC cells; assay: AR-V7 protein (WB) and mRNA (qPCR) levels in LNCaP95 PC cells; format: cell-based; settings: I-BET151 for 48 hours
Procedure: (§1) All cell lines were purchased from LGC Standards/ATCC unless otherwise specified and grown in recommended media at 37° C. in 5% CO2. Short tandem repeat profiling was performed using the Cell Authentication Service by Eurofins Medigenomix to ensure the quality and integrity of the cell lines used. Cells lines were tested for mycoplasma after thawing, then regularly every 6-8 weeks during culture using the Venor®GeM Advance Mycoplasma Detection Kit (Minerva Biolabs). Early passages were thawed every 3-months (after approximately 15-20 passages). Small interfering RNA (siRNA): All siRNAs were ONTARGETplus pools (Dharmacon; GE heathcare), and used in combination with 0.4% RNAiMax transfection reagent (ThermoFisher Scientific) as per manufacturer's instructions. siRNA experiments were performed at 50 nM, unless otherwise specified, for 72-hours. […]
(§2) 0.45 μm pore size (Millipore). […] Chemiluminescence was then detected using the Chemidoc Touch imaging system (BioRad). Quantitative Reverse Transcription Polymerase Chain Reaction (qRT-PCR)
(§3) The RNeasy Plus Mini kit (Qiagen) was used to extract cellular RNA as per manufacturer's instructions. […] The fold change in mRNA expression levels was calculated by the comparative Ct method, using the formula 2-(-(ΔΔCt).

[2] = system: JMJD6 protein in LNCaP95 cells; assay: WB of JMJD6 protein in LNCaP95 cells treated with I-BET151; format: cell-based; settings: I-BET151 for 48 hours
Procedure: Subsequent to cell lysis with RIPA buffer (Pierce) supplemented with cOmplete™ EDTA-free Protease Inhibitor Cocktail (Roche), protein extracts (20 μg) were separated by electrophoresis on 4-12% NuPAGE® Bis-Tris gel plates (Invitrogen) prior to transfer onto Immobilon-P™ PVDF membranes of 0.45 μm pore size (Millipore). Membranes were then incubated sequentially with primary and then secondary antibody in 5% milk and tris-buffered saline (TBS) and Tween®20 (Sigma Aldrich). Chemiluminescence was then detected using the Chemidoc Touch imaging system (BioRad). Quantitative Reverse Transcription Polymerase Chain Reaction (qRT-PCR)

[3] = system: 12-mer peptide substrate of the LUC7L2 pre-mRNA splicing factor
[4] = system: AR-V7 in 22Rv1 PC cells; assay: AR-V7 protein (WB) and mRNA (qPCR) levels in 22Rv1 PC cells; format: cell-based; settings: 2,4-PDCA for 48 hours
Procedure: as §1, §2, §3

[5] = at least in some cell types; cited from earlier work
[6] = biological target: T1, JMJD6 (1-362) (Homo sapiens, UniProt Q6NYC1); assay: LC-MS assay for JMJD6 inhibition (hydroxylation of LUC7L2 peptide substrate); format: biochemical; set-up: dose or concentration left out as unconfirmed; settings: 8-point 3-fold serial dilution of 2,4-PDCA, 2 hours at 37° C.
T1 construct: by JMJD6 (1-362, prepared as reported); made in house
Description: Liquid Chromatography Mass Spectrometry (LC-MS) assays for JMJD6 inhibition by 2,4-PDCA Hydroxylation of a 12-mer peptide substrate (NPKRSRSREHRR, prepared with a C-terminal amide) of the LUC7L2 pre-mRNA splicing factor by JMJD6 (1-362, prepared as reported) was monitored by liquid chromatography mass spectrometry (LC-MS) using an Agilent 1290 infinity II LC system equipped with an Agilent 1290 infinity binary pump and coupled to an Agilent 6550 Accurate Mass Quadrupole Time of Flight (Q-TOF) mass spectrometer. Note this construct has hydroxylation but not demethylation activity. All JMJD61-362 enzyme reactions were performed in 50 mM Tris.Cl pH 7.5 (prepared fresh each day) at 37° C. […] Peptide ionization was monitored in the positive ion electrospray ionisation (ESI) mode with a drying gas temperature of 280° C., a drying gas flow rate of 13 L/minute, nebulizer gas pressure of 40 PSI, sheath gas temperature of 350° C., sheath gas flow rate of 12 L/min and a nozzle voltage of 1000V. […] The % conversion of the peptide substrate to the +16 hydroxylated peptide was calculated using the equation: % conversion=100×hydroxylated/(hydroxylated+non-hydroxylated peptide). The IC50 for 2,4-PDCA was determined from non-linear regression curve fitting using GraphPad prism 6.0.

[7] = system: AR-V7 in VCaP PC cells; assay: AR-V7 protein (WB) and mRNA (qPCR) levels in VCaP PC cells; format: cell-based; settings: 72 hour, siRNA 25 nM, Enzalutamide 10 µM
Procedure: as §1, §2, §3

[8] = system: VCaP PC cells; assay: CellTiter-Glo Luminescent Cell Viability Assay, VCaP; format: cell-based; settings: siRNA 25 nM; Enzalutamide; after 5-days; vs control siRNA + DMSO 0.1%
Procedure: Cells were plated in 48-well tissue culture plates and treated as indicated the following day, then grown for 6-days or until 80-90% confluence. To quantify growth of LNCaP, LNCaP95, 22Rv1 and PNT2 cell lines, cells were fixed with 10% (w/v) aqueous trichloroacetic acid and incubated at 4° C. for 30-minutes prior to washing and air-drying. Subsequently cells were stained with sulforhodamine B (SRB) for 30-minutes prior to excess dye removal with 1% (v/v) aqueous acetic acid and further air-drying. Following this, protein-bound dye was dissolved in 10 mM Tris base solution, transferred to a 96-wellplate, and optical density determined at 510 nm using the Synergy HT microplate reader (BioTek). VCaP cell growth assays were analyzed using CellTiter-Glo® Luminescent Cell Viability Assay (Promega) as per manufacturer instructions, and luminescence quantified using the Synergy HT microplate reader (BioTek).

With `COc1cc2c(cc1-c1c(C)noc1C)ncc1[nH]c(=O)n([C@H](C)c3ccccn3)c12` [I-BET151] as the molecule, how does the AR-V7 protein expression [1] read?
Its AR-V7 protein expression is “dose-dependent reduction”.

And the JMJD6 protein expression [2]?
Its JMJD6 protein expression is “dose-dependent reduction”.

Which “lysyl-5-hydroxylation of the peptide substrate (LC-MS, % conversion to the +16 hydroxylated peptide)” value [3] does the source give for JMJD6 (1-362) here?
Its value is 2,4-PDCA caused dose-dependent reduction in isolated JMJD6-mediated lysyl-5-hydroxylation of the known downstream target LUC7-Like (LUC7L).

Which AR-V7 protein levels [4] does the source give for `O=C(O)c1ccnc(C(=O)O)c1` [2,4-PDCA, pyridine-2,4-dicarboxylic acid] here?
Its AR-V7 protein levels is “dose-dependent reduction”.

And the permeability [5]?
The permeability was “low”.

And the “isolated JMJD6-mediated lysyl-5-hydroxylation of LUC7-Like (LUC7L)” value [6]?
Its value is “dose-dependent reduction”.

For `CNC(=O)c1ccc(N2C(=S)N(c3ccc(C#N)c(C(F)(F)F)c3)C(=O)C2(C)C)cc1F` [enzalutamide], which “AR-V7 protein (WB) levels” value [7] is on record?
The value was “increase significantly”.

And the “VCaP PC cell viability” value [8]?
Its value is “reduced”.
